Reference: ChEMBL document CHEMBL3132769, “Fragment growing to retain or alter the selectivity of anchored kinase hinge-binding fragments” (Medchemcomm, 2014)

Columns and labels:
[1] = target: Vascular endothelial growth factor receptor 2 (Homo sapiens) (UniProt P35968); experiment: Inhibition of human KDR cytoplasmic domain expressed in baculovirus assessed as substrate phosphorylation using fluorescence-labelled peptides as substrate at 0.06 uM after 90 mins by microfluidic peptide phosphorylation assay
[2] = target: Hepatocyte growth factor receptor (Homo sapiens) (UniProt P08581); experiment: Inhibition of human MET cytoplasmic domain expressed in baculovirus assessed as substrate phosphorylation using fluorescence-labelled peptides as substrate at 420 uM after 90 mins by microfluidic peptide phosphorylation assay
[3] = target: T1, Protein kinase C epsilon type (Homo sapiens) (UniProt Q02156); experiment: Inhibition of human truncated PKC epsilon expressed in baculovirus assessed as substrate phosphorylation using fluorescence-labelled peptides as substrate at 0.2 uM after 90 mins by microfluidic peptide phosphorylation assay
T1 sequence (whole entry): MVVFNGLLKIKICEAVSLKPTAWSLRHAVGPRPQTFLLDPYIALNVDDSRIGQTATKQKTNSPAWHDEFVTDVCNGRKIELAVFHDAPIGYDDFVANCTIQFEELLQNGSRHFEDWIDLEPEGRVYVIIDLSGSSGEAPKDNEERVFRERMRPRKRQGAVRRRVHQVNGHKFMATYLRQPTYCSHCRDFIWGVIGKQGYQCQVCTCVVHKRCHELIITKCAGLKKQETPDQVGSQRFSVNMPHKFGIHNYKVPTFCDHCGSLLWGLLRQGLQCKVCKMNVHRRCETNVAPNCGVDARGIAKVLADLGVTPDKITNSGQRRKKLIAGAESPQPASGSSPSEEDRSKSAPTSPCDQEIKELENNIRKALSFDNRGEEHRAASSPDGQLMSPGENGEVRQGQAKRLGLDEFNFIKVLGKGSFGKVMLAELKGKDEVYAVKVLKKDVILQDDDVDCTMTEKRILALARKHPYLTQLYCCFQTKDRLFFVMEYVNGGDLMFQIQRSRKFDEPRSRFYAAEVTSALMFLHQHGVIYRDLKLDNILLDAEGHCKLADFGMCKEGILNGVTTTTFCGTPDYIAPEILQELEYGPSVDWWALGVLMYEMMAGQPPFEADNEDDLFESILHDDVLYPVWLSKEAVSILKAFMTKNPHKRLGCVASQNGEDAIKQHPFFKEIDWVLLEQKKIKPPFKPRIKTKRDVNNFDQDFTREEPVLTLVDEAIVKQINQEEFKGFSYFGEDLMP

[4] = target: Glycogen synthase kinase-3 beta (Homo sapiens) (UniProt P49841); experiment: Inhibition of human full length GSK-3 beta expressed in baculovirus assessed as substrate phosphorylation using fluorescence-labelled peptides as substrate at 0.2 uM after 90 mins by microfluidic peptide phosphorylation assay
[5] = target: MAP kinase-activated protein kinase 3 (Homo sapiens) (UniProt Q16644); experiment: Inhibition of human full length MAPKAPK3 expressed in Escherichia coli cell assessed as substrate phosphorylation using fluorescence-labelled peptides as substrate at […] after 90 mins by microfluidic peptide phosphorylation assay
[6] = target: Ribosomal protein S6 kinase alpha-5 (Homo sapiens) (UniProt O75582); experiment: Inhibition of human full length MSK1 expressed in baculovirus assessed as substrate phosphorylation using fluorescence-labelled peptides as substrate at 0.1 uM after 90 mins by microfluidic peptide phosphorylation assay
[7] = target: Vascular endothelial growth factor receptor 2 (Homo sapiens) (UniProt P35968); experiment: Inhibition of human KDR cytoplasmic domain expressed in baculovirus assessed as substrate phosphorylation using fluorescence-labelled peptides as substrate at 0.1 uM after 90 mins by microfluidic peptide phosphorylation assay
[8] = target: Platelet-derived growth factor receptor alpha (Homo sapiens) (UniProt P16234); experiment: Inhibition of human PDGFR alpha catalytic domain expressed in baculovirus assessed as substrate phosphorylation using fluorescence-labelled peptides as substrate at 9 uM after 90 mins by microfluidic peptide phosphorylation assay
[9] = target: RAC-alpha serine/threonine-protein kinase (Homo sapiens) (UniProt P31749); experiment: Inhibition of human AKT1 catalytic domain expressed in baculovirus assessed as substrate phosphorylation using fluorescence-labelled peptides as substrate at 70 uM after 90 mins by microfluidic peptide phosphorylation assay
[10] = target: Ribosomal protein S6 kinase alpha-5 (Homo sapiens) (UniProt O75582); experiment: Inhibition of human full length MSK1 expressed in baculovirus assessed as substrate phosphorylation using fluorescence-labelled peptides as substrate at 95 uM after 90 mins by microfluidic peptide phosphorylation assay
[11] = target: Cyclin-dependent kinase 2 (Homo sapiens) (UniProt P24941); experiment: Inhibition of human full length CDK2 expressed in baculovirus assessed as substrate phosphorylation using fluorescence-labelled peptides as substrate at 8 uM after 90 mins by microfluidic peptide phosphorylation assay
[12] = target: T2, Serine/threonine-protein kinase Chk1 (Homo sapiens) (UniProt O14757); experiment: Inhibition of human full length CHK1 expressed in baculovirus assessed as substrate phosphorylation using fluorescence-labelled peptides as substrate at 1000 uM after 90 mins by microfluidic peptide phosphorylation assay
T2 sequence (whole entry): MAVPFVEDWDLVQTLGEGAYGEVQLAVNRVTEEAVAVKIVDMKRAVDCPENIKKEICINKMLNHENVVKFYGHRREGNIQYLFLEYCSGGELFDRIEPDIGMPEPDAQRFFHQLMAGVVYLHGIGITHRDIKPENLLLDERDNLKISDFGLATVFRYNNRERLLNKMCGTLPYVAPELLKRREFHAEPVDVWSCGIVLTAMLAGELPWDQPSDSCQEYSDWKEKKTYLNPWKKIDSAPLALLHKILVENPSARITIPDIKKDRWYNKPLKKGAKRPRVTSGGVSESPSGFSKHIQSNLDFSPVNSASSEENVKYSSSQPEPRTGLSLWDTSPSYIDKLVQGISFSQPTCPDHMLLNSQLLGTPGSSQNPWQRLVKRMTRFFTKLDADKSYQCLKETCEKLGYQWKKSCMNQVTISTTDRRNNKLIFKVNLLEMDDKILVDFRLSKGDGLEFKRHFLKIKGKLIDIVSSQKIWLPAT

[13] = target: Calcium/calmodulin-dependent protein kinase type II subunit delta (Homo sapiens) (UniProt Q13557); experiment: Inhibition of human full length CAMK2D expressed in baculovirus assessed as substrate phosphorylation using fluorescence-labelled peptides as substrate at 1000 uM after 90 mins by microfluidic peptide phosphorylation assay
[14] = target: Protein kinase C delta type (Homo sapiens) (UniProt Q05655); experiment: Inhibition of human truncated PKC delta expressed in baculovirus assessed as substrate phosphorylation using fluorescence-labelled peptides as substrate at 1000 uM after 90 mins by microfluidic peptide phosphorylation assay
[15] = target: Vascular endothelial growth factor receptor 2 (Homo sapiens) (UniProt P35968); experiment: Inhibition of human KDR cytoplasmic domain expressed in baculovirus assessed as substrate phosphorylation using fluorescence-labelled peptides as substrate at 1000 uM after 90 mins by microfluidic peptide phosphorylation assay
Homo sapiens = species: Homo sapiens; experiment: Inhibition of human P70S6K catalytic domain expressed in baculovirus assessed as substrate phosphorylation using fluorescence-labelled peptides as substrate at 2 uM after 90 mins by microfluidic peptide phosphorylation assay

Vascular endothelial growth factor receptor 2 (Homo sapiens), sequence (P35968 whole entry, the tested form may be a part): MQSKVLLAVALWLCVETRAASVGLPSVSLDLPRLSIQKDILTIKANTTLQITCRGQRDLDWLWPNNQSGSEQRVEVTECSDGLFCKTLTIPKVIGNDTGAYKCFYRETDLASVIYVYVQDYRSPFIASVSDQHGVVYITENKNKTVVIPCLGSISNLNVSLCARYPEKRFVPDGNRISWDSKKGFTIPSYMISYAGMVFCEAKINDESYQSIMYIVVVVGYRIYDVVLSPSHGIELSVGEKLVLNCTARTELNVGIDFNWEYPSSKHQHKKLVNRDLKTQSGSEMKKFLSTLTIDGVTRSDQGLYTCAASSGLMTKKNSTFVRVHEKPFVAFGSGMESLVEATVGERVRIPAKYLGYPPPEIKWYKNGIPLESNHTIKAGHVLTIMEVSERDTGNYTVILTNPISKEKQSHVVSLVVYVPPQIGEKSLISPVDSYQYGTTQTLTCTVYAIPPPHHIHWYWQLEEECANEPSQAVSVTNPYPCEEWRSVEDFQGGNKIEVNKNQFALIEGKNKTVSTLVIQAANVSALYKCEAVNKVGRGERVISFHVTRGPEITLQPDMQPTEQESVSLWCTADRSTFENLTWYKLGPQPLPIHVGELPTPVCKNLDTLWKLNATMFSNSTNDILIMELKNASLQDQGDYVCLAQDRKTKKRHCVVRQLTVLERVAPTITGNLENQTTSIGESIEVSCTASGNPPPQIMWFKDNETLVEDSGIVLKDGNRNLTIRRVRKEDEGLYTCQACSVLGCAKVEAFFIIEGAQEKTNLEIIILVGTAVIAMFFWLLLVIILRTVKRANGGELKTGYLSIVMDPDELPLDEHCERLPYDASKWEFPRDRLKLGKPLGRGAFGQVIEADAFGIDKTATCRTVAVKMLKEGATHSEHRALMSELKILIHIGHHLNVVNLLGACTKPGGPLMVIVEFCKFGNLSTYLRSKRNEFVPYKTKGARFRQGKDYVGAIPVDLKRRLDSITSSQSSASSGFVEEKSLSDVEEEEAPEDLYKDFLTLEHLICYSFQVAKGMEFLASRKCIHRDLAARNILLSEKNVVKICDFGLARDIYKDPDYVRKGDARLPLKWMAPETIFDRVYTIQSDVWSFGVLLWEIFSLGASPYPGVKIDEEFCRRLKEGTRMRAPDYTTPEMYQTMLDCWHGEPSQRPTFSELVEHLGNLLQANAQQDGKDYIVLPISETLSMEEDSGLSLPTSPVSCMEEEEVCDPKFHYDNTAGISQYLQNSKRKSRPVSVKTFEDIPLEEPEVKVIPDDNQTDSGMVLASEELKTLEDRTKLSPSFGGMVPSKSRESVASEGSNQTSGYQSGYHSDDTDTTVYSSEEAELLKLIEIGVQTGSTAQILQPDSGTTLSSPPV
Ribosomal protein S6 kinase alpha-5 (Homo sapiens), sequence (O75582 whole entry, looked up, the tested form may be a part): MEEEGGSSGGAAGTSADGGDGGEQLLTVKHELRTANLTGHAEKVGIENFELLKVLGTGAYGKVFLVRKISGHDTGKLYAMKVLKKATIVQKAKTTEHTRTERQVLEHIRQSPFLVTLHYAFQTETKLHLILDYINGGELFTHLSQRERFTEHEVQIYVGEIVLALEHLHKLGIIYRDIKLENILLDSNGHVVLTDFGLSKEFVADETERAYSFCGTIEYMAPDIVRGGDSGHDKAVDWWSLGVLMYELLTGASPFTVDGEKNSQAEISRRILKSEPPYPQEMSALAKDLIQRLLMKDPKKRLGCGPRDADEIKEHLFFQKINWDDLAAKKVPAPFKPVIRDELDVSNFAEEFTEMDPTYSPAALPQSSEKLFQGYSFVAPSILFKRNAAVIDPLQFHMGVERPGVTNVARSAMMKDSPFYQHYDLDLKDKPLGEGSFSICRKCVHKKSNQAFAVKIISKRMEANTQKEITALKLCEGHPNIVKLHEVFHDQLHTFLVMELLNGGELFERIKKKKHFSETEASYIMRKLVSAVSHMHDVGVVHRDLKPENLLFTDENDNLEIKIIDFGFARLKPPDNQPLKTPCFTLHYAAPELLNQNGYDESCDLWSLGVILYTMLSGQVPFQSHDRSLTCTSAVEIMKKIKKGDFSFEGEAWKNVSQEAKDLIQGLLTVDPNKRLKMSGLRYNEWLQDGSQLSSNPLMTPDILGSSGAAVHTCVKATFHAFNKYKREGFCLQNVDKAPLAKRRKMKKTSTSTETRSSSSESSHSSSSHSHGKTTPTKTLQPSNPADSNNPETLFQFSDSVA
Protein kinase C delta type (Homo sapiens), sequence (Q05655 whole entry, looked up, the tested form may be a part): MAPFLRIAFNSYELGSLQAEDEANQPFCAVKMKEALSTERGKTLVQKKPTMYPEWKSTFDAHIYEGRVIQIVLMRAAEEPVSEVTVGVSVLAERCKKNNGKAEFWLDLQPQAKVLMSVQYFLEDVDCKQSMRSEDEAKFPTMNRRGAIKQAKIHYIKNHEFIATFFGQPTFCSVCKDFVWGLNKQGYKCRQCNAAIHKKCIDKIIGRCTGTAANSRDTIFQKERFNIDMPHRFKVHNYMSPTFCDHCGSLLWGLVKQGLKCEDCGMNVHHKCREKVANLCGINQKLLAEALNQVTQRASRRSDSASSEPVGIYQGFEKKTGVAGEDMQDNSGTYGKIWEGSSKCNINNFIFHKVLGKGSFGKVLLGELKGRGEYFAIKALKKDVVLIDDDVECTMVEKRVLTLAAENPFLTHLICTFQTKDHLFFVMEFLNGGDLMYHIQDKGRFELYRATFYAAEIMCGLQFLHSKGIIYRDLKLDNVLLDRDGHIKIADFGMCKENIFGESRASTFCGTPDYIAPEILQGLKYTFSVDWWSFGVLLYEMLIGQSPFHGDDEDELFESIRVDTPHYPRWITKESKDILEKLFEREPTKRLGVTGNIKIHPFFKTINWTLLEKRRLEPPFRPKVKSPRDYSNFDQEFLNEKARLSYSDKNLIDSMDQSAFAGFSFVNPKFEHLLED
Hepatocyte growth factor receptor (Homo sapiens), sequence (P08581 whole entry, the tested form may be a part): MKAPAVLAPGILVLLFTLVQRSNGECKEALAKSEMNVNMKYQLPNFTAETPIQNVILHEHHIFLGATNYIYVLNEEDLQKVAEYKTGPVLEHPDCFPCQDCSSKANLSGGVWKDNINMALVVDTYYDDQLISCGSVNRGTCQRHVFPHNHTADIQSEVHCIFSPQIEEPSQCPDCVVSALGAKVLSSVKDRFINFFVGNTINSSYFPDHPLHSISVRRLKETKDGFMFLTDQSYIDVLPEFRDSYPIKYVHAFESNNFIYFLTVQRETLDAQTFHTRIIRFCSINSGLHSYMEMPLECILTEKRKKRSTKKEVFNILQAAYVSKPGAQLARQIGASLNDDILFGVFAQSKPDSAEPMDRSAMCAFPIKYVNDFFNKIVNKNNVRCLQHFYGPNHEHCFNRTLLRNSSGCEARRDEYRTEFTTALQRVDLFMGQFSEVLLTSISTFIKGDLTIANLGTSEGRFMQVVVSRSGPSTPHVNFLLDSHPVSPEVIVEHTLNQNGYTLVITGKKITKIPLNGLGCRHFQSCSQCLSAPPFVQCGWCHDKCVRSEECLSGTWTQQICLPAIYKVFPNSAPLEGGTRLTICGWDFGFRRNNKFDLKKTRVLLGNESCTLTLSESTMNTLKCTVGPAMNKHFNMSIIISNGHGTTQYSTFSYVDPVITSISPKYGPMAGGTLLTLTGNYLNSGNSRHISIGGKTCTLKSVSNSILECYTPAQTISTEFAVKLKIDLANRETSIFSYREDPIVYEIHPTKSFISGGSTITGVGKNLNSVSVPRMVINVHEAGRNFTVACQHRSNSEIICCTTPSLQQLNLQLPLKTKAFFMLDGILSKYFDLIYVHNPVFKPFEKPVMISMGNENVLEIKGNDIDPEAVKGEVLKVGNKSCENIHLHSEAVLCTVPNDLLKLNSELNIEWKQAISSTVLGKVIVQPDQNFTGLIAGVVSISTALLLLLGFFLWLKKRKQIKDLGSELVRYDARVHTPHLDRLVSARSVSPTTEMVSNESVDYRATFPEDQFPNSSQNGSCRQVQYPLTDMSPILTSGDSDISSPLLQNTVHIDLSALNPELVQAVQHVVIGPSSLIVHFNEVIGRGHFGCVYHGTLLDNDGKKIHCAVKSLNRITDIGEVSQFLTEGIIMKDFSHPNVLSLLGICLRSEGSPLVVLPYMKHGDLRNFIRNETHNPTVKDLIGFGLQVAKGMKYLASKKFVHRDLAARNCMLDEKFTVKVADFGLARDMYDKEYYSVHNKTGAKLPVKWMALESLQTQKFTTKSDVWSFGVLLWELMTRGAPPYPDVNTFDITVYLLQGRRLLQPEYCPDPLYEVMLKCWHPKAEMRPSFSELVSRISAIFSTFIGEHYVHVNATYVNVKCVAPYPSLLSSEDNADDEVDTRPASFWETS
MAP kinase-activated protein kinase 3 (Homo sapiens), sequence (Q16644 whole entry, looked up): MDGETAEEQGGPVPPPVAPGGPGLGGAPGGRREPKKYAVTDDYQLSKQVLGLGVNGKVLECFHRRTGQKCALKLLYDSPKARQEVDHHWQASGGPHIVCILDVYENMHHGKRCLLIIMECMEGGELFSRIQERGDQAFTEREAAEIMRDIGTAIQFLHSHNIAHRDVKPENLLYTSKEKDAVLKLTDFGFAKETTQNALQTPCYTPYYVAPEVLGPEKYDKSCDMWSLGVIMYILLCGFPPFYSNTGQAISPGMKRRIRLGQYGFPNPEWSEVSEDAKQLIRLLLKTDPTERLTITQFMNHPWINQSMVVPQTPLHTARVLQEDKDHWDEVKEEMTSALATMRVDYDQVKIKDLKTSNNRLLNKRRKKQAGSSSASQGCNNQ
RAC-alpha serine/threonine-protein kinase (Homo sapiens), sequence (P31749 whole entry, the tested form may be a part): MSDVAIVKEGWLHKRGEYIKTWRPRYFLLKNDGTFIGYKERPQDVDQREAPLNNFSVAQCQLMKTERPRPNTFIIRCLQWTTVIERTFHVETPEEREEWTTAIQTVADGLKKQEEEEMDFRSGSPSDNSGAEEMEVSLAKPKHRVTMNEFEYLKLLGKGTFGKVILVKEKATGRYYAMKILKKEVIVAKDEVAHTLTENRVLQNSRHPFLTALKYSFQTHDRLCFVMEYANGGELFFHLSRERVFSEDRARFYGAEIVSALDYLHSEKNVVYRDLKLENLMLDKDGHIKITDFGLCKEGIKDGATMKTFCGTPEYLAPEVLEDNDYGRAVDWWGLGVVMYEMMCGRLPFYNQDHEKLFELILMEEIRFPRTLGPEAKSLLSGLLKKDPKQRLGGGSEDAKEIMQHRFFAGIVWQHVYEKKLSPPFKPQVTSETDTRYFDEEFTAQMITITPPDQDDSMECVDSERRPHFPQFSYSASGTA

SMILES: NC1(Cc2ccc(Cl)cc2)CCN(c2ncnc3[nH]ccc23)CC1
- inhibition [1]: 0%

SMILES: c1nc(N2CCOCC2)c2nc[nH]c2n1
- inhibition [2]: 23%

SMILES: Clc1ccc(C2(c3ccc(-c4ncnc5[nH]cnc45)cc3)CCNCC2)cc1
- inhibition [3]: 46.5%
- inhibition [4]: 3.5%

SMILES: COC(=O)c1cnc(Nc2cnc(C#N)cn2)cc1NCC1CCNCC1
- inhibition [5]: 7%

SMILES: C[C@H](CN(C)C)Oc1nc(Nc2cc3cccc(Cl)c3cn2)cnc1C#N
- inhibition [6]: 0.5%
- inhibition [7]: 14%

SMILES: NCC1CN(c2ncnc3[nH]c4cnccc4c23)CCO1 (stereo unspecified)
- inhibition [8]: 23%

SMILES: CNCc1ccc(-c2ncnc3[nH]cnc23)cc1
- inhibition [9]: 64.5%

SMILES: NCCc1ccc(-c2ncnc3[nH]cnc23)cc1
- inhibition [10]: 76%

SMILES: NCC1CCN(c2ncnc3[nH]ccc23)CC1
- inhibition [11]: 7%

SMILES: c1cnc2[nH]ccc2c1
- inhibition [12]: 52%
- inhibition [13]: 37.5%
- inhibition [14]: 45.5%
- inhibition [15]: 89.5%

SMILES: NC1CCN(c2ncnc3[nH]ccc23)CC1
- inhibition (Homo sapiens): 3.5%
